Laboratory results: US20040116652A1, “Method for producing and using novel human defensins as biologically active proteins for treating infections and other diseases” (priority 2000, published 2004)
Bridge positions count the residues as written; N and C are the ends. Ends that are not written are not given here.

Assays:
Assay in all cases: radial diffusion assay, antimicrobial effect
Assay type in all cases: cell-based
Design in all cases: key: (+) means the formation of an inhibition halo; (−) means no formation of an inhibition halo
[1] = system: Saccharomyces cerevisiae
From the text: (§1) In a radial diffusion assay, the activities stated in Table 1 could be measured for the peptides against different bacterial strains. In the Table, (+) means the formation of an inhibition halo, and (−) means no formation of an inhibition halo.

[2] = system: Staphylococcus carnosus
From the text: as §1

[3] = system: Escherichia coli
From the text: as §1

Sequence: FIGLRRCLMGLGRCRDHCNVDEKEIQKCKMKKCCVGPKVVKLIK (disulfide 7-33, 14-28, 18-34) [hBD19]
- formation of an inhibition halo [1]: (−)
- formation of an inhibition halo [2]: (+)
- formation of an inhibition halo [3]: (+)

Sequence: NTICHMQQGICRLFFCHSGEKKRGICSDPWNRCCVSNTDEEGKEKPEMD (disulfide 4-33, 11-26, 16-34) [hBD10]
- formation of an inhibition halo [1]: (+)
- formation of an inhibition halo [2]: (+)
- formation of an inhibition halo [3]: (+)

Sequence: TPGGTQRCWNLYGKCRYRCSKKERVYVYCINNKMCCVKPKYQPKERWWPF (disulfide 8-35, 15-29, 19-36) [hBD17]
- formation of an inhibition halo [1]: (+)
- formation of an inhibition halo [2]: (+)
- formation of an inhibition halo [3]: (+)
